Test results: patent publication EP4722195A1, “PH-SENSITIVE CATIONIC LIPID AND LIPID NANOPARTICLES” (National University Corporation Hokkaido University, priority 2023, dated 2024)

Legend:
hEPO = hEPO in the serum of mice administered hEPO mRNA-loaded lipid nanoparticles (ELISA); type: in vivo; conditions: Example 29, Fig. 8, 6, 24, and 48 hours after administration, N = 3
Description: Subsequently, each hEPO mRNA-loaded lipid nanoparticle was administered to mice, and blood samples were collected from the tail vein at 6, 24, and 48 hours after administration (N = 3). The collected blood was allowed to stand at room temperature for 90 minutes, followed by centrifugation at 25°C, 1,000 x g for 15 minutes. The supernatant was collected to obtain serum. The hEPO activity in the serum was measured using a commercially available ELISA kit (Human EPO ELISA Kit, Invitrogen). Calibration samples were prepared by serial dilution from 100 mIU/mL to obtain solutions of […], each in a volume of 450 µL. Serum samples were diluted 10- to 10,000-fold to fall within the calibration range. A volume of 100 µL of each calibration sample and serum sample was applied to the plate, followed by the addition of […] of Biotin-Conjugate and incubation at 18 to 25°C for 1 hour. The wells were washed six times, and 100 µL of Streptavidin-HRP was added to each well and incubated at 18 to 25°C for 15 minutes. After another six washes, 100 µL of TMB Substrate Solution was added to each well, and the plate was shielded from light using aluminum foil and incubated at 18 to 25°C for 10 minutes. Finally, 100 µL of Stop Solution was added, and absorbance at 450 nm was measured using a spectrofluorometer (Varioskan Lux, Thermo Fisher Scientific).

transthyretin (TTR) = test: TTR-targeted genome editing in mice, serum TTR (ELISA); type: in vivo, Balb/c mice; conditions: for TTR knockout activity: serum TTR one week after administration, N = 3
Description: Specifically, an RNA solution was first prepared to contain Cas9-mRNA (TriLink, SmoU-modified) and gRNA targeting transthyretin (TTR) at a mass ratio of 1:2 (N/P = 6.0). Using this RNA solution, in the same manner as Example 27, lipid nanoparticles encapsulating Cas9-mRNA and TTR-gRNA (SEQ ID NO: 1) and having a composition of TxT/DSPC/chol/PEG-DMG = 50/3/47/1.5 (mol%) were prepared (lipid nanoparticles for TTR-targeted genome editing). […]
Subsequently, each of the prepared lipid nanoparticles for TTR-targeted genome editing was administered via tail vein injection to female Balb/c mice (4 weeks old) at a dose of 1.5 mg Cas9 mRNA/kg. […] The collected blood was allowed to stand at room temperature for 1 hour, followed by centrifugation at 25°C, 1,000 × g for 15 minutes. The supernatant was collected to obtain serum. The TTR concentration in the serum was measured using a commercially available ELISA kit (Prealbumin ELISA Kit Mouse, Aviva Systems Biology). Calibration samples were prepared by serial dilution from 500 ng/mL to obtain solutions of 250, 125, 62.5, 31.25, and 15.63 ng/mL, each in a volume of 300 µL. Serum samples were diluted 10,000-fold. A volume of 100 µL of each calibration sample and serum sample was applied to the plate and incubated at 25°C for 30 minutes. The wells were washed four times, and 100 µL of Enzyme-Antibody Conjugate was added to each well. The plate was shielded from light using aluminum foil and incubated at 25°C for 20 minutes. After another four washes, 100 µL of TMB Substrate Solution (Aviva Systems Biology) was added to each well, and the plate was shielded from light using aluminum foil and incubated at 25°C for 10 minutes. Finally, 100 µL of Stop Solution (Aviva Systems Biology) was added, and absorbance at 450 nm was measured using a spectrofluorometer (Varioskan Lux, Thermo Fisher Scientific).
Subsequently, the lipid nanoparticles for TTR-targeted genome editing were administered to mice and serum TTR levels (µg/mL) were measured (N = 3) in the same manner as in Example 32, except that a dose of Cas9-mRNA was adjusted to 0.1, 0.3, and 1.0 mg/kg. In the figure, "NT" indicates the measurement result of serum from mice that were not administered lipid nanoparticles.

[1] = Average particle size and polydispersity index of lipid nanoparticles (dynamic light scattering); type: physicochemical
Description: The average particle size (number average value), ζ-average particle size, and polydispersity index (PdI) of the lipid nanoparticles in PBS(-) (pH 7.4), and the zeta potential in 10 mM HEPES buffer (pH 7.4) were measured using an analyzer "Zetasizer Nano ZS ZEN3600" (manufactured by Malvern) utilizing dynamic light scattering.

[2] = Example 32, Fig. 11, 1.5 mg Cas9 mRNA/kg tail vein
[3] = Table 1, Fluc mRNA-loaded lipid nanoparticles, TxT/DSPC/chol/PEG-DMG=50/15/35/1.5 (mol%)
[4] = Table 3, Fluc mRNA-loaded lipid nanoparticles, TxT/DSPC/chol/PEG-DMG=50/3/47/1.5 (mol%)
[5] = Table 4, Fluc mRNA-loaded lipid nanoparticles, TxT-5-5A14/DSPC/chol/PEG-DMG=50/3/47/1.5, SM-102, ALC-0315 or MC3/DSPC/chol/PEG-DMG=50/10/40/1.5 (mol%)
[6] = Table 5, EGFP mRNA-loaded lipid nanoparticles, TxT/DSPC/chol/PEG-DMG=50/3/47/1.5 (mol%), total flow rate 3.0 mL/min
[7] = Table 6 (Example 28), Fluc mRNA-loaded lipid nanoparticles, TxT/DSPC/chol/PEG-DMG=50/3/47/1.5 (mol%)
[8] = Table 7, hEPO mRNA-loaded lipid nanoparticles, TxT/DSPC/chol/PEG-DMG=50/3/47/1.5, SM-102/DSPC/chol/PEG-DMG=50/10/40/1.5 (mol%)
[9] = Table 8 (Example 32), lipid nanoparticles for TTR-targeted genome editing, Cas9-mRNA and TTR-gRNA 1:2 (N/P = 6.0), TxT/DSPC/chol/PEG-DMG = 50/3/47/1.5 (mol%)
[10] = Table 9 (Example 33), lipid nanoparticles for TTR-targeted genome editing, Cas9-mRNA and TTR-gRNA 1:2 (N/P = 6.0), TxT-5-5A14/DSPC/chol/PEG-DMG = 50/3/47/1.5 (mol%)
[11] = Table 10 (Example 34), lipid nanoparticles for PCSK9-targeted genome editing, Cas9-mRNA and PCSK9-gRNA 1:2 (N/P = 6.0), TxT-5-5A14/DSPC/chol/PEG-DMG = 50/3/47/1.5 (mol%)
[12] = Table 2, Fluc mRNA-loaded lipid nanoparticles, TxT-5-5A16/DSPC/chol/PEG-DMG=50/X/50-X/1.5 (mol%), DSPC concentration 3 mol %
[13] = Table 2, Fluc mRNA-loaded lipid nanoparticles, TxT-5-5A16/DSPC/chol/PEG-DMG=50/X/50-X/1.5 (mol%), DSPC concentration 6 mol %
[14] = Table 2, Fluc mRNA-loaded lipid nanoparticles, TxT-5-5A16/DSPC/chol/PEG-DMG=50/X/50-X/1.5 (mol%), DSPC concentration 9 mol %
[15] = Table 2, Fluc mRNA-loaded lipid nanoparticles, TxT-5-5A16/DSPC/chol/PEG-DMG=50/X/50-X/1.5 (mol%), DSPC concentration 12 mol %
[16] = Table 2, Fluc mRNA-loaded lipid nanoparticles, TxT-5-5A16/DSPC/chol/PEG-DMG=50/X/50-X/1.5 (mol%), DSPC concentration 15 mol %

Row | SMILES | hEPO concentrations in serum compared to lipid nanoparticles comprising SM-102 (hEPO) | TTR knockout activity (transthyretin (TTR); [2]) | Pdl [1, 3] | number average particle size [1, 3] [nm] | ζ-average particle size [1, 3] [nm] | Pdl [1, 4] | number average particle size [1, 4] [nm] | ζ-average particle size [1, 4] [nm] | Pdl [1, 6] | number average particle size [1, 6] [nm] | ζ-average particle size [1, 6] [nm] | Pdl [1, 7] | number average particle size [1, 7] [nm] | ζ-average particle size [1, 7] [nm] | Pdl [1, 8] | number average particle size [1, 8] [nm] | ζ-average particle size [1, 8] [nm] | Pdl [1, 9] | number average particle size [1, 9] [nm] | ζ-average particle size [1, 9] [nm] | further results
1 | CCCCCCCN(CCCCCCC)C(=O)CCCC(=O)OCC(COC(=O)CCCC(=O)N(CCCCCCC)CCCCCCC)(COC(=O)CCCC(=O)N(CCCCCCC)CCCCCCC)NC(=O)CCN1CCCCC1 [TxT-5-5A14, 2-(((5-(diheptylamino)-5-oxopentanoyl)oxy)methyl)-2-(3-(piperidin-1-yl)propanamido)propane-1,3-diyl bis(5-(diheptylamino)-5-oxopentanoate)] | clearly higher hEPO concentrations | exceeding 85% | 0.11 | 72.4 | 106.2 | 0.08 | 78.9 | 101.0 | 0.06 | 80.9 | 106.0 | 0.09 | 79.6 | 107.7 | 0.04 | 76.6 | 103.4 | 0.05 | 66.4 | 82.2 | TTR knockout efficiency versus dose (transthyretin (TTR); Example 33, Fig. 12, 0.1, 0.3, and 1.0 mg/kg): dose-dependent increase in TTR knockout efficiency; TTR knockout activity (transthyretin (TTR); Example 33, Fig. 12, dose of 0.3 mg RNA/kg): no less than 60%; Pdl [1, 5]: 0.08; number average particle size [1, 5]: 82.4 nm; ζ-average particle size [1, 5]: 113.8 nm; Pdl [1, 10]: 0.10; number average particle size [1, 10]: 67.7 nm; ζ-average particle size [1, 10]: 91.8 nm; Pdl [1, 11]: 0.10; number average particle size [1, 11]: 73.6 nm; ζ-average particle size [1, 11]: 99.4 nm
2 | CCCCCCC(CCCC)CNC(=O)CCCC(=O)OCC(COC(=O)CCCC(=O)NCC(CCCC)CCCCCC)(COC(=O)CCCC(=O)NCC(CCCC)CCCCCC)NC(=O)CCN1CCCCC1 (stereo not drawn) [TxT-5-5A12β, 2-(((5-((2-butyloctyl)amino)-5-oxopentanoyl)oxy)methyl)-2-(3-(piperidin-1-yl)propanamido)propane-1,3-diyl bis(5-((2-butyloctyl)amino)-5-oxopentanoate)] | clearly higher hEPO concentrations | exceeding 85% | 0.08 | 82.8 | 111.9 | 0.08 | 72.8 | 96.0 | 0.05 | 81.9 | 104.0 | 0.06 | 71.2 | 92.0 | 0.10 | 66.9 | 88.9 | 0.02 | 71.3 | 87.8 | average particle diameter, comparison among TxT lipids ([1]; Example 32, Table 8, lipid nanoparticles for TTR-targeted genome editing): largest
3 | CCCCCCCCN(CCCCCCCC)C(=O)CCCC(=O)OCC(COC(=O)CCCC(=O)N(CCCCCCCC)CCCCCCCC)(COC(=O)CCCC(=O)N(CCCCCCCC)CCCCCCCC)NC(=O)CCN1CCCCC1 [TxT-5-5A16, 2-(((5-(dioctylamino)-5-oxopentanoyl)oxy)methyl)-2-(3-(piperidin-1-yl)propanamido)propane-1,3-diyl bis(5-(dioctylamino)-5-oxopentanoate)] | – | – | 0.11 | 61.0 | 85.6 | 0.03 | 93.3 | 114.0 | 0.04 | 112.5 | 132.4 | – | – | – | – | – | – | – | – | – | Pdl [1, 12]: 0.0; number average particle size [1, 12]: 93.3 nm; ζ-average particle size [1, 12]: 114.0 nm; Pdl [1, 13]: 0.04; number average particle size [1, 13]: 78.6 nm; ζ-average particle size [1, 13]: 96.8 nm; Pdl [1, 14]: 0.08; number average particle size [1, 14]: 66.3 nm; ζ-average particle size [1, 14]: 90.2 nm; Pdl [1, 15]: 0.07; number average particle size [1, 15]: 64.4 nm; ζ-average particle size [1, 15]: 85.1 nm; Pdl [1, 16]: 0.14; number average particle size [1, 16]: 60.8 nm; ζ-average particle size [1, 16]: 88.3 nm
